According to PubChem BioAssay AID1963865 (Molecular Pharmacology Branch, DTP, NCI, 2024):

Test system: KRAS PDC multicell spheroid viability
Assay: Anticancer human tumor 825966-067-R-J1-PDC patient-derived colon carcinoma cell line growth inhibition [KRAS2]
Settings: for IC50: curve of first compound; for viability, T/C: stronger effect = lower value; active = viability on the fitted dose curve at most 10% of control; inactive = the rest
Procedure, shortened: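 KRAS-mutant tumor cells were grown as spheroids with HUVEC endothelial cells and human MSCs as stroma. Targeted agents were tested alone and with KRAS pathway inhibitors. Doses started at or near clinical Cmax, or 10 microM, descending half-log.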

[1] = second compound 0.1 µM, first compound 0.0316 µM
[2] = second compound 0.316 µM, first compound 0.0316 µM
[3] = second compound 1 µM, first compound 0.0316 µM
[4] = second compound 3.16 µM, first compound 0.0316 µM
[5] = second compound 0.1 µM, first compound 0.1 µM
[6] = second compound 0.1 µM, first compound 0.316 µM
[7] = second compound 0.1 µM, first compound 1 µM
[8] = second compound 0.1 µM, first compound 3.16 µM
[9] = second compound 0.1 µM, first compound 10 µM
[10] = second compound 0.316 µM, first compound 0.1 µM
[11] = second compound 0.316 µM, first compound 0.316 µM
[12] = second compound 0.316 µM, first compound 1 µM
[13] = second compound 0.316 µM, first compound 3.16 µM
[14] = second compound 0.316 µM, first compound 10 µM
[15] = second compound 1 µM, first compound 0.1 µM
[16] = second compound 1 µM, first compound 0.316 µM
[17] = second compound 1 µM, first compound 1 µM
[18] = second compound 1 µM, first compound 3.16 µM
[19] = second compound 1 µM, first compound 10 µM
[20] = second compound 3.16 µM, first compound 0.1 µM
[21] = second compound 3.16 µM, first compound 0.316 µM
[22] = second compound 3.16 µM, first compound 1 µM
[23] = second compound 3.16 µM, first compound 3.16 µM
[24] = second compound 3.16 µM, first compound 10 µM
[25] = second compound 10 µM, first compound 0.0316 µM
[26] = second compound 10 µM, first compound 0.1 µM
[27] = second compound 10 µM, first compound 0.316 µM
[28] = second compound 10 µM, first compound 1 µM
[29] = second compound 10 µM, first compound 3.16 µM
[30] = second compound 10 µM, first compound 10 µM
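Also: spheroids exposed to compounds for 7 days.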
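For viability, T/C in this document: 100% = DMSO vehicle control viability.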

CC(=O)Nc1cccc(-n2c(=O)n(C3CC3)c(=O)c3c(Nc4ccc(I)cc4F)n(C)c(=O)c(C)c32)c1 + C=CC(=O)N1CCN(c2nc(OCC3CCCN3C)nc3c2CCN(c2cccc4cccc(C)c24)C3)CC1CC#N
inactive: viability, T/C (second compound 0.0316 µM, first compound 0.0001 µM) 92% | viability, T/C (second compound 0.0316 µM, first compound 0.000316 µM) 94.8% | viability, T/C (second compound 0.0316 µM, first compound 0.001 µM) 119% | viability, T/C (second compound 0.0316 µM, first compound 0.00316 µM) 128% | viability, T/C (second compound 0.0316 µM, first compound 0.01 µM) 101% | viability, T/C (second compound 0.0316 µM, first compound 0.0316 µM) 49.8% | viability, T/C (second compound 0.1 µM, first compound 0.0001 µM) 84% | viability, T/C (second compound 0.1 µM, first compound 0.000316 µM) 92.6% | viability, T/C (second compound 0.1 µM, first compound 0.001 µM) 97.5% | viability, T/C (second compound 0.1 µM, first compound 0.00316 µM) 111% | viability, T/C (second compound 0.1 µM, first compound 0.01 µM) 94.9% | viability, T/C [1] 50.5% | viability, T/C (second compound 0.316 µM, first compound 0.0001 µM) 83.6% | viability, T/C (second compound 0.316 µM, first compound 0.000316 µM) 92.1% | viability, T/C (second compound 0.316 µM, first compound 0.001 µM) 96.7% | viability, T/C (second compound 0.316 µM, first compound 0.00316 µM) 110% | viability, T/C (second compound 0.316 µM, first compound 0.01 µM) 92.1% | viability, T/C [2] 33.9% | viability, T/C (second compound 1 µM, first compound 0.0001 µM) 110% | viability, T/C (second compound 1 µM, first compound 0.000316 µM) 95% | viability, T/C (second compound 1 µM, first compound 0.001 µM) 102% | viability, T/C (second compound 1 µM, first compound 0.00316 µM) 106% | viability, T/C (second compound 1 µM, first compound 0.01 µM) 71.4% | viability, T/C [3] 53.4% | viability, T/C (second compound 3.16 µM, first compound 0.0001 µM) 62.2% | viability, T/C (second compound 3.16 µM, first compound 0.000316 µM) 107% | viability, T/C (second compound 3.16 µM, first compound 0.001 µM) 105% | viability, T/C (second compound 3.16 µM, first compound 0.00316 µM) 121% | viability, T/C (second compound 3.16 µM, first compound 0.01 µM) 5.74% | viability, T/C [4] 16.1%
23.1 nM: IC50 (second compound 0.316 µM)
5.99 nM: IC50 (second compound 3.16 µM)
31.6 nM: IC50 (second compound 0.0316 µM)
> 31.6 nM: IC50 (second compound 0.1 µM) | IC50 (second compound 1 µM)

COc1cc2nccc(Oc3ccc(NC(=O)C4(C(=O)Nc5ccc(F)cc5)CC4)cc3)c2cc1OC + CNCc1ccccc1-c1csc(C(C)Nc2nc(C)nc3cc(OC)c(OC)cc23)c1
active: viability, T/C [8] 4.92% | viability, T/C [9] 6.89% | viability, T/C [13] 3.71% | viability, T/C [14] 4.44% | viability, T/C [18] 0.94% | viability, T/C [19] 0.47% | viability, T/C [23] 0.6% | viability, T/C [24] 0.24% | viability, T/C [25] 0.28% | viability, T/C [26] 0.32% | viability, T/C [27] 0.24% | viability, T/C [28] 0.18% | viability, T/C [29] 0.17% | viability, T/C [30] 0.29%
1730 nM: IC50 (second compound 0.316 µM)
1880 nM: IC50 (second compound 1 µM)
< 31.6 nM: IC50 (second compound 10 µM)
inactive: viability, T/C [1] 86.2% | viability, T/C [5] 124% | viability, T/C [6] 94% | viability, T/C [7] 91.2% | viability, T/C [2] 74.8% | viability, T/C [10] 98.7% | viability, T/C [11] 94% | viability, T/C [12] 97.8% | viability, T/C [3] 97.9% | viability, T/C [15] 117% | viability, T/C [16] 104% | viability, T/C [17] 122% | viability, T/C [4] 113% | viability, T/C [20] 59.8% | viability, T/C [21] 53.4% | viability, T/C [22] 1.03%
192 nM: IC50 (second compound 3.16 µM)
1740 nM: IC50 (second compound 0.1 µM)

CCNC(=O)CC1N=C(c2ccc(Cl)cc2)c2cc(OC)ccc2-n2c(C)nnc21 (stereo not given) + C=CC(=O)N1CCN(c2nc(=O)n(-c3c(C)ccnc3C(C)C)c3nc(-c4c(O)cccc4F)c(F)cc23)C(C)C1
1290 nM: IC50 (second compound 10 µM)
inactive: viability, T/C [1] 81% | viability, T/C [5] 80.9% | viability, T/C [6] 108% | viability, T/C [7] 111% | viability, T/C [8] 99.5% | viability, T/C [9] 81.8% | viability, T/C [2] 79.6% | viability, T/C [10] 76.6% | viability, T/C [11] 68% | viability, T/C [12] 104% | viability, T/C [13] 85.6% | viability, T/C [14] 85.2% | viability, T/C [3] 80.9% | viability, T/C [15] 91.5% | viability, T/C [16] 102% | viability, T/C [17] 83.3% | viability, T/C [18] 83.9% | viability, T/C [19] 63.6% | viability, T/C [4] 74.8% | viability, T/C [20] 82.3% | viability, T/C [21] 98.3% | viability, T/C [22] 91.8% | viability, T/C [23] 50.1% | viability, T/C [24] 61.5% | viability, T/C [25] 104% | viability, T/C [26] 72.5% | viability, T/C [27] 95.4% | viability, T/C [28] 54.3% | viability, T/C [29] 32.4% | viability, T/C [30] 36.9%
> 10000 nM: IC50 (second compound 0.1 µM) | IC50 (second compound 0.316 µM) | IC50 (second compound 1 µM) | IC50 (second compound 3.16 µM)
